Laboratory results taken from patent US10562891B2, “Quinazolinones as PARP14 inhibitors” (Ribon Therapeutics Inc., priority 2017, dated 2020).
Structures can show the parent of a compound that is named as a salt.

target: catalytic domain of human PARP14 (Homo sapiens (Human), UniProt Q460N5); experiment: Enzymatic assay for inhibition of PARP14 (DELFIA, auto-modification with biotin-NAD); format: biochemical; conditions: auto-modification of PARP14 by biotin-NAD, 50 nM PARP14, 3 μM biotin-NAD
Procedure, shortened: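 DELFIA auto-modification read-out: europium-streptavidin bound to biotin-NAD incorporated onto nickel-captured His-TEV PARP14 catalytic domain. Compound preincubated 30 min, then 50 nM enzyme with 3 μM biotin-NAD reacted 3 h, all at 25 °C, pH 8, then NAD quench. Percent inhibition normalized to rucaparib/DMSO wells, fitted (4- or 3-parameter) for IC50.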

catalytic domain of human PARP14, sequence (Q460N5 1611-1801): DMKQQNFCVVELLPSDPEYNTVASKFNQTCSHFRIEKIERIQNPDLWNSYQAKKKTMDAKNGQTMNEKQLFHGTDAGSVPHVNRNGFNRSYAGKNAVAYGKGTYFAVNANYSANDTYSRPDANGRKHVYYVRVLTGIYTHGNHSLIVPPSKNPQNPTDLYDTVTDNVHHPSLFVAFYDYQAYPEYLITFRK

SMILES	IC50 [nM]
O=c1[nH]c(CSC2CCNCC2)nc2cc(NCC3CCC3)cc(F)c12 [Example 261, 7-((Cyclobutylmethyl)amino)-5-fluoro-2-((piperidin-4-ylthio)methyl)quinazolin-4(3H)-one]	< 1000
O=c1[nH]c(CSC2CCOCC2)nc2cc(OCC3CCOC3)cc(F)c12 (stereo not drawn) [Example 238, 5-Fluoro-2-(((tetrahydro-2H-pyran-4-yl)thio)methyl)-7-((tetrahydrofuran-3-yl)methoxy)quinazolin-4(3H)-one]	< 1000
COC(=O)N1CCC(SCc2nc3cc(NC4CCCC4)ccc3c(=O)[nH]2)CC1 [Example 208, Methyl 4-(((7-(cyclopentylamino)-4-oxo-3,4-dihydroquinazolin-2-yl)methyl)thio)piperidine-1-carboxylate]	< 1000
O=c1[nH]c(CSC2CCNCC2)nc2cc(NC3CCC3)cc(F)c12 [Example 177, 7-(Cyclobutylamino)-5-fluoro-2-((piperidin-4-ylthio)methyl)quinazolin-4(3H)-one Hydrochloride]	< 1000
Cc1cccc2c(=O)[nH]c(CSC3CCN(C(=O)CCc4ccccn4)CC3)nc12 [Example 173, 8-Methyl-2-(((1-(3-(pyridin-2-yl)propanoyl)piperidin-4-yl)thio)methyl) quinazolin-4(3H)-one]	1000 to 10000
CN1CC[C@H](CNc2cc3nc(CSC4CCOCC4)[nH]c(=O)c3c(F)c2F)[C@@H](F)C1 [Example 425]	< 1000
CS(=O)(=O)N1CCC[C@@H](Nc2cc(F)c3c(=O)[nH]c(CSC4CCOCC4)nc3c2)C1 [Example 250, (R)-5-fluoro-7-((1-(methylsulfonyl)piperidin-3-yl)amino)-2-(((tetrahydro-2H-pyran-4-yl)thio)methyl)quinazolin-4(3H)-one]	< 1000
O=c1[nH]c(CS[C@H]2CC[C@@H](O)CC2)nc2cc(Nc3ccccc3)ccc12 [Example 99, 2-(((cis-4-Hydroxycyclohexyl)thio)methyl)-7-(phenylamino)quinazolin-4(3H)-one]	1000 to 10000
Cc1cccc2c(=O)[nH]c(CSC3CCN(C(=O)[C@H](N)CCCCN)CC3)nc12 [Example 172, 2-(((1-(D-Lysyl)piperidin-4-yl)thio)methyl)-8-methylquinazolin-4(3H)-one Dihydrochloride]	< 1000
Cc1ccc(F)c2c(=O)[nH]c(CSC3CCNCC3)nc12 [Example 51, 5-Fluoro-8-methyl-2-((piperidin-4-ylthio)methyl)quinazolin-4(3H)-one Hydrochloride]	< 1000
Cc1cccc2c(=O)[nH]c(CSC3CCN(Cc4ccccn4)CC3)nc12 [Example 18, 8-Methyl-2-(((1-(pyridin-2-ylmethyl)piperidin-4-yl)thio)methyl)quinazolin-4(3H)-one]	< 1000
Cc1ccc2nc(CSC3CCOCC3)[nH]c(=O)c2c1 [Example 3]	1000 to 10000
CO[C@H]1C[C@@H](Nc2cc3nc(CS[C@H]4CC[C@](C)(O)CC4)[nH]c(=O)c3c(F)c2F)C1 [Example 374]	< 1000
CN1CC[C@@H](COc2cc(F)c3c(=O)[nH]c(CSC4CCOCC4)nc3c2)[C@H](F)C1 [Example 327a, 5-Fluoro-7-(((3S,4S)-3-fluoro-1-methylpiperidin-4-yl)methoxy)-2-(((tetrahydro-2H-pyran-4-yl)thio)methyl)quinazolin-4(3H)-one]	< 1000
Cc1cccc2c(=O)[nH]c(CSC3CCN(C(=O)CN)CC3)nc12 [Example 166, 2-(((1-Glycylpiperidin-4-yl)thio)methyl)-8-methylquinazolin-4(3H)-one Hydrochloride]	< 1000
Cc1cccc2c(=O)[nH]c(CSC3CCN(S(=O)(=O)c4ccccn4)CC3)nc12 [Example 175, 8-Methyl-2-(((1-(pyridin-2-ylsulfonyl)piperidin-4-yl)thio)methyl)quinazolin-4(3H)-one]	1000 to 10000
O=c1[nH]c(CSC2CCOCC2)nc2cc(OCC3CCOCC3)cc(Cl)c12 [Example 353]	< 1000
O=c1[nH]c(CSC2CCOCC2)nc2cc(OCC3CC3)cc(F)c12 [Example 291, 7-(Cyclopropylmethoxy)-5-fluoro-2-(((tetrahydro-2H-pyran-4-yl)thio)methyl)quinazolin-4(3H)-one]	< 1000
COc1cccc2c(=O)[nH]c(CSC3CCOCC3)nc12 [Example 6]	1000 to 10000
Cc1ccc(C(F)(F)F)c2c(=O)[nH]c(CS[C@H]3CC[C@@H](O)CC3)nc12 [Example 61, 2-(((cis-4-Hydroxycyclohexyl)thio)methyl)-8-methyl-5-(trifluoromethyl) quinazolin-4(3H)-one]	< 1000
O=c1[nH]c(CSC2CCOCC2)nc2cc(Nc3nccs3)ccc12 [Example 89, 2-(((Tetrahydro-2H-pyran-4-yl)thio)methyl)-7-(thiazol-2-ylamino)quinazolin-4(3H)-one]	1000 to 10000
O=c1[nH]c(CSC2CCOCC2)nc2cc(Nc3cccnc3)ccc12 [Example 80, 7-(Pyridin-3-ylamino)-2-(((tetrahydro-2H-pyran-4-yl)thio)methyl)quinazolin-4(3H)-one]	< 1000
CC(=O)NC1(C)CCC(SCc2nc3cc(OCC4CC4)cc(F)c3c(=O)[nH]2)CC1 (stereo not drawn) [Example 380]	< 1000

SMILES	IC50 [nM]
O=c1[nH]c(CSC2CCS(=O)(=O)CC2)nc2cc(NC3CCCC3)cc(F)c12 [Example 270, 7-(Cyclopentylamino)-2-(((1,1-dioxidotetrahydro-2H-thiopyran-4-yl)thio)methyl)-5-fluoroquinazolin-4(3H)-one]	< 1000
CC(C)(O)C(=O)N1CCC(SCc2nc3cc(NC4CCCC4)cc(F)c3c(=O)[nH]2)CC1 [Example 279, 7-(Cyclopentylamino)-5-fluoro-2-(((1-(2-hydroxy-2-methylpropanoyl)piperidin-4-yl)thio)methyl)quinazolin-4(3H)-one]	< 1000
O=c1[nH]c(CSC2CCOCC2)nc2cc(OCC3CC3(F)F)cc(F)c12 (stereo not drawn) [Example 315, 7-((2,2-Difluorocyclopropyl)methoxy)-5-fluoro-2-(((tetrahydro-2H-pyran-4-yl)thio)methyl)quinazolin-4(3H)-one]	< 1000
CC(=O)N1CCC(COc2cc(F)c3c(=O)[nH]c(CS[C@H]4CC[C@@](C)(O)CC4)nc3c2)CC1 [Example 417]	< 1000
O=c1[nH]c(CSC2CCOCC2)nc2cc(OC[C@H]3CCNC[C@@H]3F)cc(F)c12 (relative stereo) [Example 352]	1000 to 10000
O=c1[nH]c(CSC2CCNCC2)nc2cc(NC3CCC(F)(F)C3)cc(F)c12 (stereo not drawn) [Example 266, 7-((3,3-Difluorocyclopentyl)amino)-5-fluoro-2-((piperidin-4-ylthio)methyl)quinazolin-4(3H)-one]	< 1000
CC(C)(COc1cc(F)c2c(=O)[nH]c(CSC3CCOCC3)nc2c1)C(F)(F)F [Example 421]	< 1000
O=c1[nH]c(CS[C@H]2CC[C@H](O)CC2)nc2cc(OC[C@@H]3CCOC3)cc(F)c12 [Example 325a, 5-Fluoro-2-((((trans)-4-hydroxycyclohexyl)thio)methyl)-7-(((R)-tetrahydrofuran-3-yl)methoxy)quinazolin-4(3H)-one]	< 1000
CC(C)COc1cc(F)c2c(=O)[nH]c(CSC3CCOCC3)nc2c1 [Example 306, 5-Fluoro-7-isobutoxy-2-(((tetrahydro-2H-pyran-4-yl)thio)methyl)quinazolin-4(3H)-one]	1000 to 10000
O=c1[nH]c(CSC2CCN(CC(F)(F)F)CC2)nc2cc(NC3CCCC3)ccc12 [Example 254, 7-(Cyclopentylamino)-2-(((1-(2,2,2-trifluoroethyl)piperidin-4-yl)thio)methyl)quinazolin-4(3H)-one]	< 1000
O=c1[nH]c(CSC2CCS(=O)(=O)CC2)nc2cc(NCC3CCC3)c(F)cc12 [Example 296, 7-((Cyclobutylmethyl)amino)-2-(((1,1-dioxidotetrahydro-2H-thiopyran-4-yl)thio)methyl)-6-fluoroquinazolin-4(3H)-one]	< 1000
Cc1cccc2c(=O)[nH]c(CSC3CCCN(C)C3)nc12 (stereo not drawn) [Example 32, 8-Methyl-2-(((1-methylpiperidin-3-yl)thio)methyl)quinazolin-4(3H)-one]	1000 to 10000
CN1CCN(c2ccc3c(=O)[nH]c(CSC4CCOCC4)nc3c2)CC1 [Example 112, 7-(4-Methylpiperazin-1-yl)-2-(((tetrahydro-2H-pyran-4-yl)thio)methyl)quinazolin-4(3H)-one]	1000 to 10000
CC(=O)N1CCC(Nc2ccc3c(=O)[nH]c(CSC4CCOCC4)nc3c2)CC1 [Example 131, 7-((1-Acetylpiperidin-4-yl)amino)-2-(((tetrahydro-2H-pyran-4-yl)thio)methyl) quinazolin-4(3H)-one]	1000 to 10000
CO[C@H]1CC[C@H](SCc2nc3c(C)cccc3c(=O)[nH]2)CC1 [Example 26, 2-((((trans)-4-Methoxycyclohexyl)thio)methyl)-8-methylquinazolin-4(3H)-one]	1000 to 10000
O=c1[nH]c(CSC2CCNCC2)nc2cc(OCC3CC3)cc(F)c12 [Example 278, 7-(Cyclopropylmethoxy)-5-fluoro-2-((piperidin-4-ylthio)methyl)quinazolin-4(3H)-one]	< 1000
O=c1[nH]c(CS[C@H]2C[C@H](O)C2)nc2cc(OCC3CCOCC3)cc(F)c12 [Example 382]	< 1000
O=c1[nH]c(CSC2CCOCC2)nc2cc(NC3CCC3)cc(F)c12 [Example 251, 7-(Cyclobutylamino)-5-fluoro-2-(((tetrahydro-2H-pyran-4-yl)thio)methyl)quinazolin-4(3H)-one]	< 1000
CN1C[C@H](COc2cc(F)c3c(=O)[nH]c(CSC4CCOCC4)nc3c2)[C@H](F)C1 (relative stereo) [Example 372]	< 1000
Cc1cccc2nc(CSC3CCOCC3)[nH]c(=O)c12 [Example 9]	1000 to 10000
CC(C)C(=O)N1CCC(COc2cc(F)c3c(=O)[nH]c(CSC4CCOCC4)nc3c2)CC1 [Example 397]	< 1000
Cc1cc(OCC2CCOCC2)cc2nc(CSC3CCOCC3)[nH]c(=O)c12 [Example 364]	< 1000
